Test results taken from US12540297B2, “Microfluidic device for cerebrovascular simulation and high-efficiency blood-brain barrier simulation system comprising same” (CELLARTGEN INC., priority 2018, dated 2026).

Tests used:
Cryptococcus neoformans = test: Multi-organ hNVU chip fungal neuroaffinity with inositol supplementation; format: cell-based; details: 200 mg/ml inositol added only to liver unit, 1 day after inoculation
Method: NSC, PC and EC were seeded in the same manner as described above for fabrication of the hNVU chip system, and 8×10^6 Huh-7 cells/ml encapsulated in a BMEM hydrogel were seeded in a central channel of a liver unit of the multi-organ hNVU chip. CFW-labeled fungal cells were injected through an upper reservoir of the liver unit so that the fungi were not affected by factors secreted from a brain unit. Simultaneously with fungal inoculation, inositol (200 mg/ml, Duchefa, RV Haarlem, Netherlands) was added only to a lower channel of the liver unit.

[1] = test system: EC layer of BBB in hNVU chip (NSC-EC-PC/flow group); test: BBB permeability response to TNF-α exposure in hNVU chip; format: cell-based, human; details: 20 ng/ml TNF-α
Method: In order to evaluate BBB permeability, the hNVU chip was placed horizontally on the substrate, and both EC and medium channels were filled with PBS to match the surface levels and homogenize the pressure applied to a 3D matrix. […] Vascular permeability was evaluated by the flow rate of the solute across the EC barrier according to the reference method. […] Vascular barrier permeability (Pv) was induced by using the mean intensity of blood vessels (Iv) and tissues (NSC gel, IT) at two different time points t1 and t2, according to Equation 6 calculated by Image J software. Here, Δt, V and Asurface are approximated by the mean morphology of the EC layer in the hNVU chip in the 3D confocal image and represent the time between two images in a selected region of interest, the NSC gel volume, and the surface area of the EC layer, respectively.

Molecule	fungal invasion into the liver unit through the EC barrier (Cryptococcus neoformans)	level of neuroaffinity of C. neoformans (Cryptococcus neoformans)	increase of permeability of the EC layer to 70 kDa FITC-dextran [1]
O[C@H]1[C@H](O)[C@@H](O)[C@H](O)[C@@H](O)[C@H]1O [inositol]	did not increase fungal invasion	reduced the level of neuroaffinity	
TNF-α			about 2.8 times
